Inconclusive results and toxic doses are left out. No stated cut-off is given here; in the data, active means T/C of 150% or more; inactive means T/C below 125%.
Tested on: L1210 leukemia ip in BDF1 mice, survival T/C
Assay: NCI In Vivo Anticancer Drug Screen. Data for tumor model L1210 Leukemia (intraperitoneal) in B6D2F1 (BDF1) mice
Details: endpoint: mean survival time, higher = longer survival
In short: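 Tumor cells were implanted, animals were treated, and survival was followed. The result divides the treated measurement by the vehicle-control measurement.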

[1] = dose: 50.0 mg/kg/injection, schedule: Q01DX009 (ip), vehicle: saline with Tween-80
[2] = dose: 100.0 mg/kg/injection, schedule: Q01DX001 (ip), vehicle: saline
[3] = dose: 200.0 mg/kg/injection, schedule: Q01DX001 (ip), vehicle: saline
[4] = dose: 400.0 mg/kg/injection, schedule: Q01DX001 (ip), vehicle: saline
[5] = dose: 100.0 mg/kg/injection, schedule: Q01DX009 (ip), vehicle: saline with Tween-80
[6] = dose: 200.0 mg/kg/injection, schedule: Q01DX009 (ip), vehicle: saline with Tween-80
[7] = dose: 100.0 mg/kg/injection, schedule: Q04DX003 (ip), vehicle: saline with Tween-80
[8] = dose: 200.0 mg/kg/injection, schedule: Q04DX003 (ip), vehicle: saline with Tween-80
[9] = dose: 400.0 mg/kg/injection, schedule: Q04DX003 (ip), vehicle: saline with Tween-80
[10] = dose: 25.0 mg/kg/injection, schedule: Q01DX009 (ip), vehicle: saline
[11] = dose: 50.0 mg/kg/injection, schedule: Q01DX009 (ip), vehicle: Klucel (hydroxypropylcellulose) (HPC)
[12] = dose: 100.0 mg/kg/injection, schedule: Q01DX009 (ip), vehicle: Klucel (hydroxypropylcellulose) (HPC)
[13] = dose: 100.0 mg/kg/injection, schedule: Q04DX003 (ip), vehicle: Klucel (hydroxypropylcellulose) (HPC)
[14] = dose: 200.0 mg/kg/injection, schedule: Q01DX009 (ip), vehicle: Klucel (hydroxypropylcellulose) (HPC)
[15] = dose: 200.0 mg/kg/injection, schedule: Q04DX003 (ip), vehicle: Klucel (hydroxypropylcellulose) (HPC)
[16] = dose: 400.0 mg/kg/injection, schedule: Q01DX009 (ip), vehicle: Klucel (hydroxypropylcellulose) (HPC)
[17] = dose: 400.0 mg/kg/injection, schedule: Q04DX003 (ip), vehicle: Klucel (hydroxypropylcellulose) (HPC)

Measured: T/C

COCCOCCOCCOCCOCCOC
inactive: dose: 12.5 mg/kg/injection, schedule: Q01DX009 (ip), vehicle: saline with Tween-80 104 % of control | dose: 25.0 mg/kg/injection, schedule: Q01DX009 (ip), vehicle: saline with Tween-80 94 % of control | [1] 105 % of control

CCCCCCCCCC(N)C(=O)O (stereo not drawn)
inactive: dose: 50.0 mg/kg/injection, schedule: Q04DX002 (ip), vehicle: gum acacia 100 % of control | dose: 100.0 mg/kg/injection, schedule: Q04DX002 (ip), vehicle: gum acacia 98 % of control | dose: 200.0 mg/kg/injection, schedule: Q04DX002 (ip), vehicle: gum acacia 100 % of control

COc1cc([N+](=O)[O-])c(C)cc1Br
inactive: [2] 105 % of control | dose: 100.0 mg/kg/injection, schedule: Q04DX003 (ip), vehicle: acetone 98 % of control | [3] 107 % of control | dose: 200.0 mg/kg/injection, schedule: Q04DX003 (ip), vehicle: acetone 100 % of control | [4] 107 % of control | dose: 400.0 mg/kg/injection, schedule: Q04DX003 (ip), vehicle: acetone 95 % of control

OC1/C(=C/c2ccccc2)c2cccc3cccc1c23 (stereo not drawn)
inactive: [1] 90 % of control | [5] 93 % of control | [6] 93 % of control

CC1(C)OC2(C)OC1(C)OC2(C)C
inactive: dose: 75.0 mg/kg/injection, schedule: Q01DX009 (ip), vehicle: carboxymethylcellulose (CMC) 100 % of control | dose: 150.0 mg/kg/injection, schedule: Q01DX009 (ip), vehicle: carboxymethylcellulose (CMC) 103 % of control | dose: 300.0 mg/kg/injection, schedule: Q01DX009 (ip), vehicle: carboxymethylcellulose (CMC) 105 % of control

C/C(=C\C(=O)O)CBr
inactive: [1] 93 % of control | [5] 86 % of control

Nc1ccnn2nnnc12
inactive: [2] 97 % of control | [3] 91 % of control | [4] 97 % of control

CC(=O)Nc1ccc(N=Cc2ccc([N+](=O)[O-])s2)cc1
inactive: [7] 100 % of control | [8] 96 % of control | [9] 98 % of control

CC(C)COC(C[N+](=O)[O-])C(Cl)(Cl)Cl (stereo not drawn)
inactive: [5] 98 % of control | [7] 92 % of control | [6] 89 % of control | [8] 90 % of control | [9] 92 % of control

CCSc1ccc2c(cc1=O)C(N)CCc1cc(OC)c(OC)c(OC)c1-2 (stereo not drawn)
inactive: dose: 12.5 mg/kg/injection, schedule: Q04DX002 (ip), vehicle: saline 107 % of control | dose: 25.0 mg/kg/injection, schedule: Q04DX002 (ip), vehicle: saline 95 % of control | dose: 50.0 mg/kg/injection, schedule: Q04DX002 (ip), vehicle: saline 98 % of control

C=CC[n+]1ccccc1Cc1ccccc1
inactive: dose: 6.25 mg/kg/injection, schedule: Q01DX009 (ip), vehicle: saline 100 % of control | dose: 12.5 mg/kg/injection, schedule: Q01DX009 (ip), vehicle: saline 108 % of control | dose: 12.5 mg/kg/injection, schedule: Q04DX003 (ip), vehicle: saline 104 % of control | [10] 103 % of control | dose: 25.0 mg/kg/injection, schedule: Q04DX003 (ip), vehicle: saline 107 % of control

CC(=O)Nc1ccc2c(c1)C(C)c1ccccc1-2 (stereo not drawn)
inactive: dose: 100.0 mg/kg/injection, schedule: Q01DX001 (ip), vehicle: carboxymethylcellulose (CMC) 89 % of control | dose: 200.0 mg/kg/injection, schedule: Q01DX001 (ip), vehicle: carboxymethylcellulose (CMC) 95 % of control | dose: 400.0 mg/kg/injection, schedule: Q01DX001 (ip), vehicle: carboxymethylcellulose (CMC) 93 % of control

O=C(O)CCC(=O)O.[Ag]
inactive: dose: 12.5 mg/kg/injection, schedule: Q04DX003 (ip), vehicle: saline with Tween-80 93 % of control | dose: 25.0 mg/kg/injection, schedule: Q01DX009 (ip), vehicle: acetone 86 % of control | dose: 25.0 mg/kg/injection, schedule: Q04DX003 (ip), vehicle: saline with Tween-80 95 % of control

C=CCOC(=O)C1OC12CCCCC2 (stereo not drawn)
inactive: dose: 50.0 mg/kg/injection, schedule: Q01DX001 (ip), vehicle: saline 104 % of control | [2] 95 % of control | [3] 101 % of control | [4] 98 % of control

CC1CN(c2ccc([N+](=O)[O-])cc2)C(C)CN1N=O (stereo not drawn)
inactive: [10] 106 % of control | dose: 50.0 mg/kg/injection, schedule: Q01DX009 (ip), vehicle: saline 104 % of control | dose: 100.0 mg/kg/injection, schedule: Q01DX009 (ip), vehicle: saline 98 % of control | dose: 200.0 mg/kg/injection, schedule: Q01DX009 (ip), vehicle: saline 97 % of control | dose: 400.0 mg/kg/injection, schedule: Q01DX009 (ip), vehicle: saline 95 % of control

CN(C)CCCC1(O)c2ccccc2Sc2cc(Cl)ccc21 (stereo not drawn)
inactive: dose: 25.0 mg/kg/injection, schedule: Q01DX009 (ip), vehicle: Klucel (hydroxypropylcellulose) (HPC) 91 % of control | dose: 25.0 mg/kg/injection, schedule: Q04DX002 (ip), vehicle: Klucel (hydroxypropylcellulose) (HPC) 96 % of control | [11] 91 % of control | dose: 50.0 mg/kg/injection, schedule: Q04DX002 (ip), vehicle: Klucel (hydroxypropylcellulose) (HPC) 99 % of control | [12] 100 % of control | dose: 100.0 mg/kg/injection, schedule: Q04DX002 (ip), vehicle: Klucel (hydroxypropylcellulose) (HPC) 101 % of control | dose: 150.0 mg/kg/injection, schedule: Q01DX009 (ip), vehicle: Klucel (hydroxypropylcellulose) (HPC) 97 % of control | dose: 225.0 mg/kg/injection, schedule: Q01DX009 (ip), vehicle: Klucel (hydroxypropylcellulose) (HPC) 90 % of control

O=C(O)c1c(Cl)c(Cl)c(Cl)c(Cl)c1-c1c2ccc(=O)c(O)c-2oc2c(O)c(O)ccc12
inactive: dose: 100.0 mg/kg/injection, schedule: Q04DX003 (ip), vehicle: saline 102 % of control | dose: 200.0 mg/kg/injection, schedule: Q04DX003 (ip), vehicle: saline 93 % of control

Nc1nc2ncc(CNc3ccc(CCC(=O)NC(CCC(=O)O)C(=O)O)cc3)nc2c(=O)[nH]1 (stereo not drawn)
inactive: dose: 50.0 mg/kg/injection, schedule: Q01DX001 (ip), vehicle: saline with Tween-80 108 % of control | dose: 100.0 mg/kg/injection, schedule: Q01DX001 (ip), vehicle: saline with Tween-80 100 % of control | dose: 200.0 mg/kg/injection, schedule: Q01DX001 (ip), vehicle: saline with Tween-80 101 % of control

O=C(c1ccccc1)c1ccc(O)cc1
inactive: [12] 93 % of control | [13] 103 % of control | [14] 93 % of control | [15] 100 % of control | [16] 100 % of control | [17] 103 % of control

NC(=O)CC(NC(=O)C(F)(F)F)C(=O)O (stereo not drawn)
inactive: dose: 100.0 mg/kg/injection, schedule: Q04DX003 (ip), vehicle: carboxymethylcellulose (CMC) 98 % of control | dose: 200.0 mg/kg/injection, schedule: Q04DX003 (ip), vehicle: carboxymethylcellulose (CMC) 98 % of control | dose: 400.0 mg/kg/injection, schedule: Q04DX003 (ip), vehicle: carboxymethylcellulose (CMC) 88 % of control

COc1ccc(OC)c(NC(=O)Nc2ccc(C(=O)O)c(O)c2)c1
inactive: [12] 91 % of control | [14] 103 % of control | [16] 97 % of control

CSc1nccnc1C
inactive: [11] 119 % of control | [12] 96 % of control | [14] 105 % of control

c1cc(C2=NCCN2)ccc1C1=NCCN1
inactive: dose: 15.0 mg/kg/injection, schedule: Q01DX Z (ip), vehicle: saline 104 % of control | dose: 30.0 mg/kg/injection, schedule: Q01DX Z (ip), vehicle: saline 102 % of control | dose: 60.0 mg/kg/injection, schedule: Q01DX Z (ip), vehicle: saline 106 % of control | dose: 120.0 mg/kg/injection, schedule: Q01DX Z (ip), vehicle: saline 101 % of control

O=C(c1ccc(Cl)cc1)C1Cc2ccccc2C1=O (stereo not drawn)
inactive: [12] 97 % of control | [13] 101 % of control | [14] 94 % of control | [15] 101 % of control | [16] 91 % of control | [17] 97 % of control

CC1C(C)N1P(I)(c1ccccc1)(c1ccccc1)c1ccccc1 (stereo not drawn)
inactive: dose: 2.5 mg/kg/injection, schedule: Q01DX001 (ip), vehicle: carboxymethylcellulose (CMC) 115 % of control

— PubChem BioAssay AID248 (DTP/NCI, 2004)
